Patent US20030013685A1, “Process for increasing the egg production and strengthening the eggshells of poultry” (priority 2000, published 2003)
Where two headings read alike, the source gives them in different places.

Tests used:
hens of ISA Brown strain [1] = experiment: Laying parameters of hens after a single subcutaneous administration of tiludronic acid (disodium tiludronate) before onset of laying; assay type: in vivo, hen; settings: for Age of onset of laying: hens monitored up to 55 weeks old; for Average number of eggs laid per hen and per week / Average total number of eggs laid per hen: from onset of laying up to 55 weeks old
Protocol: (§1) A total number of 216 hens of ISA Brown strain between 15 and 17 weeks old was divided into 3 groups for the purpose of evaluating the effects on the production of eggs of a single subcutaneous administration of tiludronic acid, in the form of its sodium salt (disodium tiludronate).
(§2) Three doses were compared: 0, 1 and 10 mg/kg (corresponding amount of tiludronic acid/kg). The tiludronic acid was administered in the form of injectable aqueous solutions such that the volume injected per bird was 1 ml per kilo of live weight. The tiludronic acid solutions were thus concentrated to 0.1% and 1% for the doses of 1 and 10 mg/kg, respectively. The control group received a placebo corresponding to water for an injectable preparation. The injections were performed subcutaneously in the region above the superficial pectoral muscle.
The hens were housed in individual cages in the same building at controlled temperature and hygrometry. Each animal was identified by a number carried on a ring attached to a wing. They received the same standard feed for laying hens, freely throughout the duration of the study. Drinking water was also distributed freely.
The average age of onset of laying for the hens in this strain is 20 weeks, with extremes of between 18 and 23 weeks. Consequently, for the hens of this study, the average delay between the treatment and the age of onset of laying had to be from 3 to 5 weeks. The duration of the study was 40 weeks. At the end of the study, the hens were 55 weeks old.
The other half of the total number of hens was monitored in order to collect the following laying parameters: age on laying the first egg and total number of eggs laid up to 55 weeks old. For each group, the average number of eggs laid per hen and per week was calculated over the entire laying period and week by week, in order to establish the laying curves.
(§3) The “age of onset of laying”, “total number of eggs laid per hen”, “number of eggs laid per hen and per week over the entire laying period”, “mechanical strength of the shell”, “thickness of the shell” and “medullary bone volume” criteria were compared by means of a single-factor variance analysis (dose factor).

hens of ISA Brown strain [2] = experiment: Histomorphometric examination of tarsometatarsal bone (medullary bone volume); assay type: in vivo, hen; settings: for Multiplication factor of medullary bone volume: onset of laying to 55 weeks old
Protocol: as §1, §2
One half of the total number of hens was sacrificed on laying the first egg, in order to carry out a histomorphometric examination. This examination was performed on one of the two tarsometatarsal bones.
At 55 weeks old, all the animals were sacrificed and a histomorphometric examination of one of the tarsometatarsal bones was performed under the same conditions as on the bones of the hens sacrificed on laying of the first egg.
as §3

hens of ISA Brown strain [3] = experiment: Thickness of the mineralized part of the shell from electron microscope images; assay type: in vivo, hen; settings: for Thickness of the mineralized part of the shell at 23 weeks: 23 weeks old; for Thickness of the mineralized part of the shell at 54 weeks: 54 weeks old
Protocol: as §1, §2
(§4) Moreover, an analysis of the mechanical strength of the shell and the thickness of the mineralized part of the shell was carried out using a sample of 12 hens at the following two dates of maturity: at 23 weeks old (i.e. at the start of laying) and at 54 weeks old. The strength of the shell was measured quantitatively by a technique of quasi-static compression of the eggshell. The thickness of the shell was measured from images obtained with an electron microscope.
as §3

hens of ISA Brown strain [4] = experiment: Mechanical strength of the eggshell by quasi-static compression; assay type: in vivo, hen; settings: for Mechanical strength of the shell at 23 weeks: 23 weeks old; for Mechanical strength of the shell at 54 weeks: 54 weeks old
Protocol: as §1, §2, §4, §3

laying hens = settings: cited from earlier work
[5] = treated groups, laying curves FIG. 1 and 2

Q: What does the source list for O=P(O)(O)C(Sc1ccc(Cl)cc1)P(=O)(O)O [tiludronic acid, 4-chlorophenylthiomethylenebisphosphonic acid]?
A: Total number of eggs laid per hen versus control group (2-by-2 analysis) (hens of ISA Brown strain [1]; 1 mg/kg): significantly higher; Age of onset of laying (hens of ISA Brown strain [1]; 1 mg/kg single subcutaneous dose): 148.3 ± 7.8 days; Average number of eggs laid per hen and per week (hens of ISA Brown strain [1]; 1 mg/kg): 6.53 ± 0.27; Average total number of eggs laid per hen (hens of ISA Brown strain [1]; 1 mg/kg): 221.6 ± 11.2; Start of laying on average after the hens of the other 2 groups (hens of ISA Brown strain [1]; 1 mg/kg, no significant difference (p=0.11)): 3 days; Age of onset of laying (hens of ISA Brown strain [1]; 10 mg/kg single subcutaneous dose): 145.1 ± 8.8 days; Average number of eggs laid per hen and per week (hens of ISA Brown strain [1]; 10 mg/kg): 6.39 ± 0.34; Average total number of eggs laid per hen (hens of ISA Brown strain [1]; 10 mg/kg): 219.8 ± 12.6; Laying peak compared with control group (hens of ISA Brown strain [1]; [5]): higher; Slope of the laying curve compared with controls (hens of ISA Brown strain [1]; [5]): substantially smaller; Change in the age of onset of laying (hens of ISA Brown strain [1]; treatment with tiludronic acid, 1 and 10 mg/kg): did not result in any change; Volume of medullary bone of the tarsometatarsal bone at 55 weeks old (hens of ISA Brown strain [2]; 1 mg/kg): 2.75 ± 2.72%; Volume of medullary bone of the tarsometatarsal bone at the onset of laying (hens of ISA Brown strain [2]; 1 mg/kg): 0.31 ± 0.53%; Multiplication factor of medullary bone volume (hens of ISA Brown strain [2]; 1 mg/kg): 9; Volume of medullary bone of the tarsometatarsal bone at 55 weeks old (hens of ISA Brown strain [2]; 10 mg/kg): 3.53 ± 3.04%; Volume of medullary bone of the tarsometatarsal bone at the onset of laying (hens of ISA Brown strain [2]; 10 mg/kg): 0.26 ± 0.33%; Multiplication factor of medullary bone volume (hens of ISA Brown strain [2]; 10 mg/kg): 13; Thickness of the mineralized part of the shell at 23 weeks (hens of ISA Brown strain [3]; 1 mg/kg): 0.256 ± 0.025 mm; Thickness of the mineralized part of the shell at 54 weeks (hens of ISA Brown strain [3]; 1 mg/kg): 0.267 ± 0.026 mm; Thickness of the mineralized part of the shell at 23 weeks (hens of ISA Brown strain [3]; 10 mg/kg): 0.272 ± 0.013 mm; Thickness of the mineralized part of the shell at 54 weeks (hens of ISA Brown strain [3]; 10 mg/kg): 0.273 ± 0.021 mm; Mechanical strength of the shell at 23 weeks (hens of ISA Brown strain [4]; 1 mg/kg): 39.3 ± 5.2 N; Mechanical strength of the shell at 54 weeks (hens of ISA Brown strain [4]; 1 mg/kg): 28.3 ± 4.9 N; Mechanical strength of the shell at 23 weeks (hens of ISA Brown strain [4]; 10 mg/kg): 41.5 ± 6.3 N; Mechanical strength of the shell at 54 weeks (hens of ISA Brown strain [4]; 10 mg/kg): 30.3 ± 6.1 N; Loss of mechanical strength of the eggshells between the two maturity dates of measurement (hens of ISA Brown strain [4]; two treated groups (1 and 10 mg/kg), between 23 and 54 weeks): about −28%

Q: For NCCCC(O)(P(=O)(O)O)P(=O)(O)O [alendronate, [4-amino-1-hydroxybutylidene] bisphosphonate], which Effect on laying (laying hens; 1 mg/kg subcutaneously every 2 days for 2 weeks, about 18 weeks after onset of laying, within a few days) is on record?
A: The Effect on laying was “complete stoppage of laying”.

Q: What about the Effect on laying (laying hens; 0.01, 0.1 or 1 mg/kg during laying) of the same compound?
A: Its Effect on laying is “reduction, or even the stopping, of laying”.

Q: What about the “Effect on the quality of the shell” value (laying hens; administration during laying, more pronounced the higher the dose) of the same compound?
A: The value was “adverse change in the quality of the shell”.
